Test results: US20050131238A1, “Spermicides” (SSL International plc, priority 2001, published 2005)

Tests used:
human sperm = assay: Evaluation of human sperm motility (spermicidal efficacy), manual microscopy; format: cell-based; settings: concentration giving 50% inhibition of sperm motility vs control, motility determined within 30 s by manual microscopy, ± SEM, read-out: Inhibition Human Sperm Motility (ED50)
Text: 1. Evaluation of Human Sperm Motility (Spermicidal Efficacy)
The number of motile sperm (%) is rapidly determined (within 30s) following exposure to varying concentrations of spermicide using manual microscopy. Using non-linear regression analysis motility data from these screens is used to generate concentration response curves and subsequently an ED50 value using GraphPad Prism software (San Diego, Calif., USA). The ED50 value is the concentration of spermicide which produces 50% inhibition of sperm motility compared to control.

ME180 cells = assay: Cell cytotoxicity (MTT cell viability assay); format: cell-based; settings: Homo sapiens, ME-180, concentration giving 50% inhibition of cell viability vs control, ± SEM
Experimental: 2. Determination of Cell Cytotoxicity (MTT Cell Viability Assay)
The effect of compounds on vaginal cell viability is assessed using the MTT assay. MTT is a tetrazolium salt which is converted by viable cells to an insoluble […]. This colour conversion is measured by spectrophotometry. Data is then subjected to non-linear regression analysis to generate concentration response curves and subsequently an EC50 value curves using GraphPad Prism software (San Diego, Calif., USA). The EC50 value is the concentration of spermicide which produces 50% inhibition of cell viability compared to control.

sperm = settings: 10 mM CPhM solution, incubation for 10 minutes; decreased from 80%; cited from earlier work

Structure (SMILES) | EC50 (human sperm) [µM] | EC50 (ME180 cells) [µM] | fertilising capacity of sperm (sperm) [%]
COCCOCCOCCOCCOc1ccc(N2C(=O)C=CC2=O)cc1 [Compound 14] | 149 | 285 | –
O=C1C=CC(=O)N1c1ccc(OCCOCCOCCOCCOCCOc2ccc(N3C(=O)C=CC3=O)cc2)cc1 [Compound 13] | 4.6 | 125 | –
CCOC(=O)c1ccc(N2C(=O)C=CC2=O)cc1 [Compound 3] | 77 | 363 | –
O=C1C=CC(=O)N1C1CCCCC1 [Compound 5] | 294 | 114 | –
O=C1C=CC(=O)N1c1ccc(Nc2ccccc2)cc1 [Compound 4] | 31 | 268 | –
O=C1C=CC(=O)N1c1ccc2c(c1)OCCO2 [Compound 7] | 43 | 410 | –
COC(=O)c1scc(C)c1N1C(=O)C=CC1=O [Compound 6] | 26 | 88 | –
O=C1C=CC(=O)N1c1ccc(OCCOCCOCCOCCOc2ccc(N3C(=O)C=CC3=O)cc2)cc1 [Compound 15] | 5 | 153 | –
O=C1C=CC(=O)N1c1ccc(-c2ccc(N3C(=O)C=CC3=O)cc2)cc1 [Compound 11] | 1.4 | > 30 | –
O=C1C=CC(=O)N1CCN1C(=O)C=CC1=O [Compound 10] | 4 | 516 | –
O=C(O)c1ccc(N2C(=O)C=CC2=O)cc1O [CPhM, N-(4-carboxy-3-hydroxy-phenyl)-maleimide] | – | – | 17
Cc1cc(N2C(=O)C=CC2=O)no1 [Compound 8] | 79 | 858 | –
O=C1C=CC(=O)N1CCOCCOCCOCCN1C(=O)C=CC1=O [Compound 12] | 10.5 | 333 | –
N#Cc1cccc(N2C(=O)C=CC2=O)c1 [Compound 9] | 56 | 143 | –
O=C1C=CC(=O)N1c1ccccc1 [Compound 1] | 32 | 370 | –
